Assays:
AMPKα1/β1/γ1 = AMPKα1/β1/γ1 (Homo sapiens, UniProt Q13131)
Text: (§1) This was completed utilizing one of two assays depending on the kinase being examined.
(§2) The assay utilized was identical to that of the single point inhibitory activity determination (MSA) but run in dose response.

AKT2 = AKT2 (Homo sapiens, UniProt P31751)
Experimental: as §1
(§3) A solution of IMAP binding reagent (IMAP Screening Express kit; Molecular Devices) (60 μL) was added to each well and incubated for 30 minutes.
(§4) A solution of termination buffer (QuickScout Screening assist MSA; Carna Biosciences) (60 μL) was added to each well. The entire reaction mixture was then applied to a LabChip3000 system (Caliper Life Science) and the product and substrate peptide peaks were separated and quantified.
(§5) The assay utilized was identical to that of the single point inhibitory activity determination (MSA) but run in dose response. […] A solution of termination buffer (QuickScout Screening assist MSA; Carna Biosciences) (60 μL) was added to each well. The entire reaction mixture was then applied to a LabChip3000 system (Caliper Life Science) and the product and substrate peptide peaks were separated and quantified.

PLK2 = PLK2 (Homo sapiens, UniProt Q9NYY3)
Experimental: as §1, §3, §4, §5

EPHA8 = EPHA8 (Homo sapiens, UniProt P29322)
Experimental: as §1, §3, §4, §5

MARK1 = MARK1 (Homo sapiens, UniProt Q9P0L2)
Experimental: as §1, §3, §4, §5

CLK2 = CLK2 (Homo sapiens, UniProt P49760)
Experimental: as §1, §3, §4, §5

PAK6 = PAK6 (Homo sapiens, UniProt Q9NQU5)
Experimental: as §1, §3, §4, §5

PHKG1 = PHKG1 (Homo sapiens, UniProt Q16816)
Experimental: as §1, §3, §4, §5

NEK4 = NEK4 (Homo sapiens, UniProt P51957)
Experimental: as §1, §3, §4, §5

BTK = BTK (Homo sapiens, UniProt Q06187)
Experimental: as §1, §3, §4, §5

TAOK2 = TAOK2 (Homo sapiens, UniProt Q9UL54)
Experimental: as §1, §3, §4

TYK2 = TYK2 (Homo sapiens, UniProt P29597)
Experimental: as §3, §4, §5

LATS2 = LATS2 (Homo sapiens, UniProt Q9NRM7)
Experimental: as §1, §3, §4, §5

CDK4/CycD3 = CDK4/CycD3 (Homo sapiens, UniProt P11802)
Experimental: as §1, §3, §4

PASK = PASK (Homo sapiens, UniProt Q96RG2)
Experimental: as §1, §3, §4, §5

IKKβ = IKKβ (Homo sapiens, UniProt O14920)
Experimental: as §1, §3, §4, §5

EGFR(T790M) = EGFR(T790M) (Homo sapiens, UniProt P00533, T790M)
Experimental: as §1, §3, §4, §5

RAF1_Cascade = RAF1_Cascade (Homo sapiens, UniProt P04049)
Experimental: as §1, §3, §4

TNK1 = TNK1 (Homo sapiens, UniProt Q13470)
Text: as §1, §2

PDGFRα = PDGFRα (Homo sapiens, UniProt P16234)
Experimental: as §1, §3, §4, §5

PDHK2 = PDHK2 (Homo sapiens, UniProt Q15119)
Experimental: as §1, §3, §4, §5

PIM1 = PIM1 (Homo sapiens, UniProt P11309)
Experimental: as §1, §3, §4

FGFR4(V550E) = FGFR4(V550E) (Homo sapiens, UniProt P22455, V550E)
Experimental: as §1, §3, §4, §5

IRAK4 = IRAK4 (Homo sapiens, UniProt Q9NWZ3)
Experimental: as §1, §3, §4, §5

HIPK1 = HIPK1 (Homo sapiens, UniProt Q86Z02)
Experimental: as §1, §3, §4

EPHA6 = EPHA6 (Homo sapiens, UniProt Q9UF33)
Experimental: as §1, §3, §4

HCK = HCK (Homo sapiens, UniProt P08631)
Experimental: as §1, §3, §4

p38γ = p38γ (Homo sapiens, UniProt P53778)
Experimental: as §1, §3, §4

Erk1 = Erk1 (Homo sapiens, UniProt P27361)
Experimental: as §1, §3, §4

EPHA5 = EPHA5 (Homo sapiens, UniProt P54756)
Experimental: as §1, §3, §4, §5

HIPK4 = target: T1, HIPK4 (Homo sapiens, UniProt Q8NE63); experiment: Carna kinase panel; assay type: biochemical
T1 construct: purchased Carna Biosciences
Experimental: as §1, §3, §4

EGFR(L861Q) = EGFR(L861Q) (Homo sapiens, UniProt P00533, L861Q)
Experimental: as §1, §3, §4, §5

LOK = LOK (Homo sapiens, UniProt O94804)
Experimental: as §1, §3, §4

DDR2 = DDR2 (Homo sapiens, UniProt Q16832)
PAK4 = PAK4 (Homo sapiens, UniProt O96013)
Experimental: as §1, §3, §4

CHK2 = CHK2 (Homo sapiens, UniProt O96017)
Experimental: as §1, §3, §4, §5

CK1δ = CK1δ (Homo sapiens, UniProt P48730)
TIE2 = TIE2 (Homo sapiens, UniProt Q02763)
Experimental: as §1, §3, §4, §5

CaMK2γ = CaMK2γ (Homo sapiens, UniProt Q13555)
Experimental: as §1, §3, §4, §5

AurB = AurB (Homo sapiens, UniProt Q96GD4)
Experimental: as §3, §4, §5

IRR = IRR (Homo sapiens, UniProt P14616)
Experimental: as §1, §3, §4, §5

TAOK2, sequence (Q9UL54 whole entry): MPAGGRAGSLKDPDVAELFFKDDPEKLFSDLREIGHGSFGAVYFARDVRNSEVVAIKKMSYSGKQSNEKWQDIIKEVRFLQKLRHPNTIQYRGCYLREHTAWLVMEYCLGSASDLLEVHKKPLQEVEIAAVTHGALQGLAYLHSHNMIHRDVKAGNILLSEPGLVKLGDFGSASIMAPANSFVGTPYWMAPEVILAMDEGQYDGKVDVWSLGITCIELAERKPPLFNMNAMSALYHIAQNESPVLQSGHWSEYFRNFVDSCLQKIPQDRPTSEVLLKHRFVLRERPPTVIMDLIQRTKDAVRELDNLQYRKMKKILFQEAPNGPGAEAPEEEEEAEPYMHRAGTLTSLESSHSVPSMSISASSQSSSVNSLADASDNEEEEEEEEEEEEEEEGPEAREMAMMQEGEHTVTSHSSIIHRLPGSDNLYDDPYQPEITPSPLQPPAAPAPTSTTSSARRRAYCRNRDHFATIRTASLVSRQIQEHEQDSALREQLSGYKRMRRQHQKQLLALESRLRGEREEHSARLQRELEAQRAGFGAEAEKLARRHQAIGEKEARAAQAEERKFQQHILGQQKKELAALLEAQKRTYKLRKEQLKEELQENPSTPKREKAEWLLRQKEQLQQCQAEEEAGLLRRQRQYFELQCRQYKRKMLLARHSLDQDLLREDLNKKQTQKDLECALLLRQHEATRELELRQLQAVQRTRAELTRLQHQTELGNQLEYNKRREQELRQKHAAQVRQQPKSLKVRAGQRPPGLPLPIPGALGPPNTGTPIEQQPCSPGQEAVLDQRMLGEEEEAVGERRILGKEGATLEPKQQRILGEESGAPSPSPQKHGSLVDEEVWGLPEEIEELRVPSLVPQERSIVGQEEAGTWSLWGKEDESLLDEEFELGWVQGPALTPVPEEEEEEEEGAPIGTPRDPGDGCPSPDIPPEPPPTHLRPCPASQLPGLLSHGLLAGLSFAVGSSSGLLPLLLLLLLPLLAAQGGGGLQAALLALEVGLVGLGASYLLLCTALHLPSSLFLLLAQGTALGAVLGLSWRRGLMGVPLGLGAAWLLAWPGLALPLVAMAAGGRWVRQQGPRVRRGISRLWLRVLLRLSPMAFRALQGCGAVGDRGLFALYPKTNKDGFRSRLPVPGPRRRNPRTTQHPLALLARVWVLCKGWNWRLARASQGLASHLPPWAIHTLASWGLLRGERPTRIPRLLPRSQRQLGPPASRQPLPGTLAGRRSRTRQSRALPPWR
HCK, sequence (P08631 whole entry): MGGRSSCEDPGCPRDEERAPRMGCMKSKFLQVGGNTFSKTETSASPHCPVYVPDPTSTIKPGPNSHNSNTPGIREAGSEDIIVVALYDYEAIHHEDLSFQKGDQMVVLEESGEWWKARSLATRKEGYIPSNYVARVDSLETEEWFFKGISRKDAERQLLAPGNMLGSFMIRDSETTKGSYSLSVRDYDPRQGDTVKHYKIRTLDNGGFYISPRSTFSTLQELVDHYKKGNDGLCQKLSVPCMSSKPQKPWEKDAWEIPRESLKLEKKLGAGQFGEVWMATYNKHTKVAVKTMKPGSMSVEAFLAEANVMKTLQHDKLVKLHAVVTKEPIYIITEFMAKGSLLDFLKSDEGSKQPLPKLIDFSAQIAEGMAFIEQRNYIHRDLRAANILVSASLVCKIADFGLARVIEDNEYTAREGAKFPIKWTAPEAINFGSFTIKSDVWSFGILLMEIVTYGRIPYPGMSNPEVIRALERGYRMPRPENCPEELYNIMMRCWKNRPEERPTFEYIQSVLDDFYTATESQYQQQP
CLK2, sequence (P49760 whole entry): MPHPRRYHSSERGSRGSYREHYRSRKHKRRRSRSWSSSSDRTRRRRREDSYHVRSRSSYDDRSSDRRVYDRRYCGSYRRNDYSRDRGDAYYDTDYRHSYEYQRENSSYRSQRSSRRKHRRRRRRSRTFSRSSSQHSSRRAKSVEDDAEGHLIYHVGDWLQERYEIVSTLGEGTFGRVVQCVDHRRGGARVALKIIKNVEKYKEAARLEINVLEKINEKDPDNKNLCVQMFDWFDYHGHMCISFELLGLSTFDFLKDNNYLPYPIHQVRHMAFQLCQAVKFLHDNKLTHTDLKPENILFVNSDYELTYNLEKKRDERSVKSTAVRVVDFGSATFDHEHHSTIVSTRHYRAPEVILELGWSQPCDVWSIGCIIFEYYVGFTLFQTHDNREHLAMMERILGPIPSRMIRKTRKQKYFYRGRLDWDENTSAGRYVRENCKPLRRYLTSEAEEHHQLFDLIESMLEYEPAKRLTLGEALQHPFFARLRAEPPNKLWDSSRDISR
CK1δ, sequence (P48730 whole entry): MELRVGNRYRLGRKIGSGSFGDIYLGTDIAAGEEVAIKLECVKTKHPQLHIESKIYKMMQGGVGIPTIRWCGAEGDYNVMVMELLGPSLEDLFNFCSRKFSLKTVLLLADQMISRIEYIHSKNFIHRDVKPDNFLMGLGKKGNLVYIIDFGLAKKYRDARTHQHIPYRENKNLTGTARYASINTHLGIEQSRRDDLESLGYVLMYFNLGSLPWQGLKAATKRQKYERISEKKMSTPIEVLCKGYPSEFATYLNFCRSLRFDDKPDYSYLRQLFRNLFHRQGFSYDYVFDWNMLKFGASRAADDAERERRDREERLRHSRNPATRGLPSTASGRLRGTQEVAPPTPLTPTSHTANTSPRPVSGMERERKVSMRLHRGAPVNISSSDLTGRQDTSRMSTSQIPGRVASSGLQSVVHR
CHK2, sequence (O96017 whole entry): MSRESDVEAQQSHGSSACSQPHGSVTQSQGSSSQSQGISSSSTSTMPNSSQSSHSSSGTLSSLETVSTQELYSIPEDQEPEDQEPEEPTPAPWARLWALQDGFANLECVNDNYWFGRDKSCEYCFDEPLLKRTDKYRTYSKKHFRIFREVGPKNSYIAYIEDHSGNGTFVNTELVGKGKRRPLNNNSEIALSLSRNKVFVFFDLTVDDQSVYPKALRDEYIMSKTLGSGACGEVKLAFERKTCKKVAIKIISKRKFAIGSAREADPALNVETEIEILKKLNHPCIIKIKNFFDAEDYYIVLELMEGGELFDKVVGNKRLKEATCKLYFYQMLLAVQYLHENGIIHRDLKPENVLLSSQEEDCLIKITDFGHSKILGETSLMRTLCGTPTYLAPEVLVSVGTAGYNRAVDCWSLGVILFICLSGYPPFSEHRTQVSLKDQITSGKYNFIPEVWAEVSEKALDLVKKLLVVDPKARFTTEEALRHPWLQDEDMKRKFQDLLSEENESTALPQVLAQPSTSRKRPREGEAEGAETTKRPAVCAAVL
BTK, sequence (Q06187 whole entry): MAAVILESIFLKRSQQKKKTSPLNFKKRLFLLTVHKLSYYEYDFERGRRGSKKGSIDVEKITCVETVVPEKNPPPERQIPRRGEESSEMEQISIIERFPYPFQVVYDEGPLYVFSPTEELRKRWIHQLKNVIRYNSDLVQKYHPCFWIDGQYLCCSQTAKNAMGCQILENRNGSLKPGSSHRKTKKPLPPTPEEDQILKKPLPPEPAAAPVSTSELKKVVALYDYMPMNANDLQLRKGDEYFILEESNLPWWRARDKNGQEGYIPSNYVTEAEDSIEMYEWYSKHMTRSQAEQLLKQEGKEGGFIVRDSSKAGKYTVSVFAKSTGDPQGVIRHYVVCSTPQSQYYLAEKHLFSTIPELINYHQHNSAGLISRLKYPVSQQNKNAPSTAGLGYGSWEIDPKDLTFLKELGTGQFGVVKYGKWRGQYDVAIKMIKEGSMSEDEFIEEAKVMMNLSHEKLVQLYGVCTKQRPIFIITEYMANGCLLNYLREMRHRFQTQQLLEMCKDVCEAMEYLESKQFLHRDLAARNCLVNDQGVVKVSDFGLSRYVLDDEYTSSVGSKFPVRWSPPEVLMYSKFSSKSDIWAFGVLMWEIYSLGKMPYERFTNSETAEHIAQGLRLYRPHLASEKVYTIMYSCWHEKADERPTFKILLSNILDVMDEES
TNK1, sequence (Q13470 whole entry): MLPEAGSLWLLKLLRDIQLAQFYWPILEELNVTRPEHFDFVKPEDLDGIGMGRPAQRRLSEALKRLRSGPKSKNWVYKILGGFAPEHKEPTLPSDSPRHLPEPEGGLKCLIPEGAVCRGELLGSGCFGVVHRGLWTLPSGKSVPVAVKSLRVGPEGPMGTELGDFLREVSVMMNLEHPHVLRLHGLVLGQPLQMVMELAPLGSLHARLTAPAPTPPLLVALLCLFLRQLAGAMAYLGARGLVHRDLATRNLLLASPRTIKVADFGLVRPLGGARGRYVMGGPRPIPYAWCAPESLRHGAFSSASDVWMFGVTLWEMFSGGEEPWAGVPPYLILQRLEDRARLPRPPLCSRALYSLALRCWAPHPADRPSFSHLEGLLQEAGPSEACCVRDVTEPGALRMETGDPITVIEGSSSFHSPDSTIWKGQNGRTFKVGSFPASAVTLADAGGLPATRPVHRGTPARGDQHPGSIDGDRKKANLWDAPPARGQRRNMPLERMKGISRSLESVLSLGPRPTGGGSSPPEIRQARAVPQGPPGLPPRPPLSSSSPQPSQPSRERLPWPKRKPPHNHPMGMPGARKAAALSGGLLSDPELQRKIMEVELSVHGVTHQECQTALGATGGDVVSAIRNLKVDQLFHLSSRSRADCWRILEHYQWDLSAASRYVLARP
IRAK4, sequence (Q9NWZ3 whole entry): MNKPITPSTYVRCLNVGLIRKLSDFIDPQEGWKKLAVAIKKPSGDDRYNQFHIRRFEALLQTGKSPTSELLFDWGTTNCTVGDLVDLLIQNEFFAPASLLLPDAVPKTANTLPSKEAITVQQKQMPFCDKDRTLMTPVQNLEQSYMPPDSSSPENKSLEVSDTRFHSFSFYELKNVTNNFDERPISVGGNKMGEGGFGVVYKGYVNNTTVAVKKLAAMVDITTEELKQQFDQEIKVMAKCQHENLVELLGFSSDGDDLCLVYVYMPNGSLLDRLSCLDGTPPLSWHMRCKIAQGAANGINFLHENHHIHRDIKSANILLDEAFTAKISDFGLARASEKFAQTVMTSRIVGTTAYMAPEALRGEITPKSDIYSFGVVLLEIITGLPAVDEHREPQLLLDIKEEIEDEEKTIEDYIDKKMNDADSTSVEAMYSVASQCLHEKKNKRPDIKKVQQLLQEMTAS

SMILES: CC[C@@]1(c2ccccc2)C2=C(CC(C)(C)CC2=O)Nc2n[nH]cc21 [BRD0705]
- % Inhibition at 10 μM (AMPKα1/β1/γ1): −4.1%
- % Inhibition at 10 μM (AKT2): −4.7%
- % Inhibition at 10 μM (PLK2): 4.0%
- % Inhibition at 10 μM (EPHA8): 2.9%
- % Inhibition at 10 μM (MARK1): 3.1%
- % Inhibition at 10 μM (CLK2): −3.0%
- % Inhibition at 10 μM (PAK6): −10.7%
- % Inhibition at 10 μM (PHKG1): −2.5%
- % Inhibition at 10 μM (NEK4): −5.1%
- % Inhibition at 10 μM (BTK): 2.1%
- % Inhibition at 10 μM (TAOK2): −5.8%
- % Inhibition at 10 μM (TYK2): −2.2%
- % Inhibition at 10 μM (LATS2): −11.9%
- % Inhibition at 10 μM (CDK4/CycD3): −9.1%
- % Inhibition at 10 μM (PASK): 0.2%
- % Inhibition at 10 μM (IKKβ): −4.0%
- % Inhibition at 10 μM (EGFR(T790M)): −4.9%
- % Inhibition at 10 μM (RAF1_Cascade): 7.5%
- % Inhibition at 10 μM (TNK1): −4.0%
- % Inhibition at 10 μM (PDGFRα): −0.8%
- % Inhibition at 10 μM (PDHK2): −0.5%
- % Inhibition at 10 μM (PIM1): −3.4%
- % Inhibition at 10 μM (FGFR4(V550E)): −0.5%
- % Inhibition at 10 μM (IRAK4): −7.4%
- % Inhibition at 10 μM (HIPK1): −6.5%
- % Inhibition at 10 μM (EPHA6): 7.4%
- % Inhibition at 10 μM (HCK): 1.1%
- % Inhibition at 10 μM (p38γ): −3.4%
- % Inhibition at 10 μM (Erk1): −9.8%
- % Inhibition at 10 μM (EPHA5): 12.7%
- % Inhibition at 10 μM (HIPK4): 2.1%
- % Inhibition at 10 μM (EGFR(L861Q)): −1.8%
- % Inhibition at 10 μM (LOK): 9.6%
- % Inhibition at 10 μM (DDR2): −1.4%
- % Inhibition at 10 μM (PAK4): 33.8%
- % Inhibition at 10 μM (CHK2): −3.6%
- % Inhibition at 10 μM (CK1δ): −3.9%
- % Inhibition at 10 μM (TIE2): 0.3%
- % Inhibition at 10 μM (CaMK2γ): −4.7%
- % Inhibition at 10 μM (AurB): −2.8%
- % Inhibition at 10 μM (IRR): 4.0%

SMILES: CC(C)(C)Cc1[nH]nc2c1[C@](C)(c1ccccc1)C1=C(CC(C)(C)CC1=O)N2 [BRD3731]
- % Inhibition 10 μM (AMPKα1/β1/γ1; 10 μM): 11.2%
- % Inhibition 10 μM (AKT2; 10 μM): −8.4%
- % Inhibition 10 μM (PLK2; 10 μM): 8.5%
- % Inhibition 10 μM (EPHA8; 10 μM): −1.9%
- % Inhibition 10 μM (MARK1; 10 μM): 9.3%
- % Inhibition 10 μM (CLK2; 10 μM): 6.1%
- % Inhibition 10 μM (PAK6; 10 μM): −46.8%
- % Inhibition 10 μM (PHKG1; 10 μM): 13.9%
- % Inhibition 10 μM (NEK4; 10 μM): −4.8%
- % Inhibition 10 μM (BTK; 10 μM): 0.3%
- % Inhibition 10 μM (TAOK2; 10 μM): 2.2%
- % Inhibition 10 μM (TYK2; 10 μM): 4.6%
- % Inhibition 10 μM (LATS2; 10 μM): −3.0%
- % Inhibition 10 μM (CDK4/CycD3; 10 μM): 18.1%
- % Inhibition 10 μM (PASK; 10 μM): 10.7%
- % Inhibition 10 μM (IKKβ; 10 μM): 0.2%
- % Inhibition 10 μM (EGFR(T790M); 10 μM): −4.0%
- % Inhibition 10 μM (RAF1_Cascade; 10 μM): −6.6%
- % Inhibition 10 μM (TNK1; 10 μM): −6.7%
- % Inhibition 10 μM (PDGFRα; 10 μM): 6.7%
- % Inhibition 10 μM (PDHK2; 10 μM): 12.7%
- % Inhibition 10 μM (PIM1; 10 μM): 11.0%
- % Inhibition 10 μM (FGFR4(V550E); 10 μM): 0.1%
- % Inhibition 10 μM (IRAK4; 10 μM): 0.1%
- % Inhibition 10 μM (HIPK1; 10 μM): 5.8%
- % Inhibition 10 μM (EPHA6; 10 μM): 9.6%
- % Inhibition 10 μM (HCK; 10 μM): 6.6%
- % Inhibition 10 μM (p38γ; 10 μM): −2.6%
- % Inhibition 10 μM (Erk1; 10 μM): 3.4%
- % Inhibition 10 μM (EPHA5; 10 μM): −5.5%
- % Inhibition 10 μM (HIPK4; 10 μM): 15.9%
- % Inhibition 10 μM (EGFR(L861Q); 10 μM): 2.7%
- % Inhibition 10 μM (LOK; 10 μM): −1.0%
- % Inhibition 10 μM (DDR2; 10 μM): 7.9%
- % Inhibition 10 μM (PAK4; 10 μM): 0.6%
- % Inhibition 10 μM (CHK2; 10 μM): 1.5%
- % Inhibition 10 μM (CK1δ; 10 μM): 10.7%
- % Inhibition 10 μM (TIE2; 10 μM): 6.7%
- % Inhibition 10 μM (CaMK2γ; 10 μM): −1.2%
- % Inhibition 10 μM (AurB; 10 μM): −2.3%
- % Inhibition 10 μM (IRR; 10 μM): 6.2%

— patent US20160375006A1, “USES OF PARALOG-SELECTIVE INHIBITORS OF GSK3 KINASES” (priority 2012, published 2016)
